Source: patent US20090042964A1, “AMINO-5-[SUBSTITUTED-4-(DIFLUOROMETHOXY)PHENYL]-5-PHENYLIMIDAZOLONE COMPOUNDS AS BETA-SECRETASE INHIBITORS” (Wyeth, priority 2007, published 2009)

Target: human BACE1 (Homo sapiens, UniProt P56817)
Assay: Fluorescent kinetic assay, evaluation of BACE1 binding affinity of test compounds
Type: biochemical
Conditions: 10 nM human BACE1, 25 μM substrate WABC-6, pH 4.5, room temperature; read-out: BACE1 IC50
Summary of the method: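 Kinetic fluorescence assay: enzyme added last to inhibitor and substrate mix, reading started immediately; substrate at 100 μM working dilution (25 μL in 100 μL total). Buffer 66.7 mM Na-acetate pH 4.5 with 0.0667% CHAPS for inhibitor and enzyme dilutions; enzyme stock quantified at 280 nm.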

Sequence of human BACE1 (P56817 46-501): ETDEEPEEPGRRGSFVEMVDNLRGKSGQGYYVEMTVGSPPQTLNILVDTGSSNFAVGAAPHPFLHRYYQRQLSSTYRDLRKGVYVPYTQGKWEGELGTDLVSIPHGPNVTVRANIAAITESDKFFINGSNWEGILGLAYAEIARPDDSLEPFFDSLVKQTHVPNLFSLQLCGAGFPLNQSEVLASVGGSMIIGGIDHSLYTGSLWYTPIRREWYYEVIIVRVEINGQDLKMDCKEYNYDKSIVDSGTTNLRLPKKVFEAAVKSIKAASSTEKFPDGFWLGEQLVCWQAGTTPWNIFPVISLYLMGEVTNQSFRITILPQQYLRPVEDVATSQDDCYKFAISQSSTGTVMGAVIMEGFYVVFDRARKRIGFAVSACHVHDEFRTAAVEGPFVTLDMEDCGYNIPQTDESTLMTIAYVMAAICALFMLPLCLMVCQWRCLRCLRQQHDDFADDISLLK

IC50 | Structure (SMILES)
< 0.1 µM | CN1C(=O)C(c2cccc(Br)c2)(c2ccc(OC(F)F)c(C3CC3)c2)N=C1N (stereo not shown) [Example 164, 2-Amino-5-(3-bromo-phenyl)-5-(3-cyclopropyl-4-difluoromethoxy-phenyl)-3-methyl-3,5-dihydro-imidazol-4-one]
< 0.1 µM | CCOc1cc(C2(c3ccc(OC(F)F)c(C)c3)N=C(N)N(C)C2=O)ccc1F (stereo not shown) [Example 101, 2-Amino-5-[4-(difluoromethoxy)-3-methylphenyl]-5-(3-ethoxy-4-fluorophenyl)-3-methyl-3,5-dihydro-4H-imidazol-4-one]
< 0.1 µM | CN1C(=O)C(c2cccc(OCCF)c2)(c2ccc(OC(F)F)c(Cl)c2)N=C1N (stereo not shown) [Example 37, 2-Amino-5-[3-chloro-4-(difluoromethoxy)phenyl]-5-[3-(2-fluoroethoxy)phenyl]-3-methyl-3,5-dihydro-4H-imidazol-4-one]
0.11 to 1 µM | Cc1cc(C2(c3ccc(F)c(OC(C)C)c3)N=C(N)N(C)C2=O)ccc1OC(F)F (stereo not shown) [Example 195, 2-amino-5-[4-(difluoromethoxy)-3-methylphenyl]-5-(4-fluoro-3-isopropoxyphenyl)-3-methyl-3,5-dihydro-4H-imidazol-4-one]
0.11 to 1 µM | CN1C(=O)[C@@](c2ccc(F)c(C#CC3CC3)c2)(c2ccc(OC(F)F)c(CCF)c2)N=C1N (single isomer, unassigned) [Example 94]
< 0.1 µM | CN1C(=O)C(c2cccc(OCCCF)c2)(c2ccc(OC(F)F)c(Cl)c2)N=C1N (stereo not shown) [Example 40, 2-Amino-5-[3-chloro-4-(difluoromethoxy)phenyl]-5-[3-(3-fluoropropoxy)phenyl]-3-methyl-3,5-dihydro-4H-imidazol-4-one]
< 0.1 µM | CCc1cc(C2(c3ccc(F)c(C#CC(C)C)c3)N=C(N)N(C)C2=O)ccc1OC(F)F (stereo not shown) [Example 153, 2-Amino-5-[4-(difluoromethoxy)-3-ethylphenyl]-5-[4-fluoro-3-(3-methylbut-1-yn-1-yl)phenyl]-3-methyl-3,5-dihydro-4H-imidazol-4-one]
< 0.1 µM | COC/C=C/c1cc(C2(c3ccc(OC(F)F)c(C)c3)N=C(N)N(C)C2=O)ccc1F (stereo not shown) [Example 57, 2-Amino-5-(4-difluoromethoxy-3-methylphenyl)-5-[4-fluoro-3-((E)-3-methoxypropenyl)phenyl]-3-methyl-3,5-dihydro-imidazol-4-one]
0.11 to 1 µM | CN1C(=O)[C@@](c2cccc(C#CCCCF)c2)(c2ccc(OC(F)F)c(C3CC3)c2)N=C1N (single isomer, unassigned) [Example 193]
0.11 to 1 µM | CN1C(=O)C(c2ccc(F)c(O)c2)(c2ccc(OC(F)F)c(Cl)c2)N=C1N (stereo not shown) [Example 95, 2-Amino-5-[3-chloro-4-(difluoromethoxy)phenyl]-5-(4-fluoro-3-hydroxyphenyl)-3-methyl-3,5-dihydro-4H-imidazol-4-one]
< 0.1 µM | CN1C(=O)C(c2cccc(C#CCCCF)c2)(c2ccc(OC(F)F)c(C3CC3)c2)N=C1N (stereo not shown) [Example 191, 2-amino-4-(3-cyclopropyl-4-(difluoromethoxy)phenyl)-4-(3-(5-fluoropent-1-ynyl)phenyl)-1-methyl-1H-imidazol-5(4H)-one]
< 0.1 µM | Cc1cc([C@]2(c3ccc(F)c(OCC4CC4)c3)N=C(N)N(C)C2=O)ccc1OC(F)F [Example 106, (5R)-2-Amino-5-[3-(cyclopropylmethoxy)-4-fluorophenyl]-5-[4-(difluoromethoxy)-3-methylphenyl]-3-methyl-3,5-dihydro-4H-imidazol-4-one]
> 1 µM | CN1C(=O)[C@@](c2ccccc2)(c2ccc(OC(F)F)c(CCCl)c2)N=C1N [Example 144, (5R)-2-Amino-5-[3-(2-chloroethyl)-4-(difluoromethoxy)phenyl]-3-methyl-5-phenyl-dihydro-4H-imidazol-4-one]
< 0.1 µM | CCc1cc([C@]2(c3ccc(F)c(C#CC4CC4)c3)N=C(N)N(C)C2=O)ccc1OC(F)F [Example 147, (5R)-2-Amino-5-[3-(cyclopropylethynyl)-4-fluorophenyl]-5-[4-(difluoromethoxy)-3-ethylphenyl]-3-methyl-3,5-dihydro-4H-imidazol-4-one]

Further lines, the compound ahead of its results:

Structure (SMILES) | IC50
CN1C(=O)[C@](c2ccc(F)c(C#CC3CC3)c2)(c2ccc(OC(F)F)c(CCF)c2)N=C1N (single isomer, unassigned) [Example 93] | < 0.1 µM
COCC#Cc1cccc([C@@]2(c3ccc(OC(F)F)c(C4CC4)c3)N=C(N)N(C)C2=O)c1 (single isomer, unassigned) [Example 181] | < 0.1 µM
Cc1cc(C2(c3ccc(F)c(OCC4CC4)c3)N=C(N)N(C)C2=O)ccc1OC(F)F (stereo not shown) [Example 105, 2-Amino-5-[3-(cyclopropylmethoxy)-4-fluorophenyl]-5-[4-(difluoromethoxy)-3-methylphenyl]-3-methyl-3,5-dihydro-4H-imidazol-4-one] | < 0.1 µM
CN1C(=O)C(c2cccc(C3CC3)c2)(c2ccc(OC(F)F)c(C3CC3)c2)N=C1N (stereo not shown) [Example 187, 2-amino-4-(3-cyclopropyl-4-(difluoromethoxy)phenyl)-4-(3-cyclopropylphenyl)-1-methyl-1H-imidazol-5(4H)-one] | 0.11 to 1 µM
COCCC#Cc1cccc(C2(c3ccc(OC(F)F)c(C4CC4)c3)N=C(N)N(C)C2=O)c1 (stereo not shown) [Example 183, 2-amino-4-(3-cyclopropyl-4-(difluoromethoxy)phenyl)-4-(3-(4-methoxybut-1-ynyl)phenyl)-1-methyl-1H-imidazol-5(4H)-one] | < 0.1 µM
Cc1cc([C@@]2(c3ccc(F)cc3)N=C(N)N(C)C2=O)ccc1OC(F)F [Example 4B, (5R)-2-Amino-4-(4-(difluoromethoxy)-3-methylphenyl)-4-(4-fluorophenyl)-1-methyl-1H-imidazol-5(4H)-one] | 0.11 to 1 µM
CC(C)c1cc(C2(c3ccccc3)N=C(N)N(C)C2=O)ccc1OC(F)F (stereo in doubt) [Example 139, (5S)-2-Amino-5-[4-(difluoromethoxy)-3-isopropylphenyl]-3-methyl-5-phenyl-3,5-dihydro-4H-imidazol-4-one] | > 1 µM
COCCC#Cc1cccc([C@]2(c3ccc(OC(F)F)c(C4CC4)c3)N=C(N)N(C)C2=O)c1 (single isomer, unassigned) [Example 184] | 0.11 to 1 µM
Cc1cc([C@@]2(c3ccc(F)c(OCCF)c3)N=C(N)N(C)C2=O)ccc1OC(F)F [Example 112, (5S)-2-Amino-5-[4-(difluoromethoxy)-3-methylphenyl]-5-[4-fluoro-3-(2-fluoroethoxy)phenyl]-3-methyl-3,5-dihydro-4H-imidazol-4-one] | > 1 µM

Same assay, conditions: BACE1 IC50 μM, 10 nM human BACE1, 25 μM substrate WABC-6, pH 4.5, room temperature

Structure (SMILES) | IC50
C=Cc1cc(C2(c3ccccc3)N=C(N)N(C)C2=O)ccc1OC(F)F (stereo not shown) [Example 11, 2-Amino-5-[4-(difluoromethoxy)-3-vinylphenyl)-3-methyl-5-phenyl-3,5-dihydro-4H-imidazol-4-one] | 0.11 to 1 µM
CCCc1cc(C2(c3ccccc3)N=C(N)N(C)C2=O)ccc1OC(F)F (stereo not shown) [Example 8, 2-Amino-5-[4-(difluoromethoxy)-3-propylphenyl]-3-methyl-5-phenyl-3,5-dihydro-4H-imidazol-4-one] | 0.11 to 1 µM
CN1C(=O)C(c2ccccc2)(c2ccc(OC(F)F)c(F)c2)N=C1N (stereo not shown) [Example 17, 2-Amino-5-[4-(difluoromethoxy)-3-fluorophenyl]-3-methyl-5-phenyl-3,5-dihydro-4H-imidazol-4-one] | 0.11 to 1 µM
Cc1cc(C2(c3ccccc3)N=C(N)N(C)C2=O)cc(C)c1OC(F)F (stereo not shown) [Example 5, 2-Amino-5-[4-(difluoromethoxy)-3,5-dimethylphenyl]-3-methyl-5-phenyl-3,5-dihydro-4H-imidazol-4-one] | 0.11 to 1 µM

Tested on: not given
Assay: not given
Conditions: not given

melting point | Structure (SMILES)
85 to 87 °C | CN1C(=O)C(c2cccc(Br)c2)(c2ccc(OC(F)F)c(C3CC3)c2)N=C1N (stereo not shown) [Example 164, 2-Amino-5-(3-bromo-phenyl)-5-(3-cyclopropyl-4-difluoromethoxy-phenyl)-3-methyl-3,5-dihydro-imidazol-4-one]
